Source: patent US20090054435A1, “Phenoxyalkanoic Acid Compound” (priority 2005, published 2009)

Assays:
PPAR γ-RXRα heterodimer = molecular target: T1, PPAR γ-RXRα heterodimer (Homo sapiens, UniProt P37231); assay: PPAR γ-RXRα heterodimer ligand activity (luciferase reporter in PPAR γ:RXRα:4ERPP/CHO-K1 cells); format: cell-based; conditions: for EC50: compound concentration showing 50% of the maximum induction rate of luciferase activity, 18-24 hr incubation; for Vmax (%): maximum luciferase induction relative to 5-{4-[2-(5-methyl-2-phenyl-1,3-oxazol-4-yl)ethoxy]benzyl}-1,3-thiazolidin-2,4-dione (PPARγ full agonist) as 100%
T1 construct: expressed in transfected cells; host or cells: CHO-K1 (PPAR γ:RXRα:4ERPP/CHO-K1)
T1 sequence (P37231 29-505 limits assumed): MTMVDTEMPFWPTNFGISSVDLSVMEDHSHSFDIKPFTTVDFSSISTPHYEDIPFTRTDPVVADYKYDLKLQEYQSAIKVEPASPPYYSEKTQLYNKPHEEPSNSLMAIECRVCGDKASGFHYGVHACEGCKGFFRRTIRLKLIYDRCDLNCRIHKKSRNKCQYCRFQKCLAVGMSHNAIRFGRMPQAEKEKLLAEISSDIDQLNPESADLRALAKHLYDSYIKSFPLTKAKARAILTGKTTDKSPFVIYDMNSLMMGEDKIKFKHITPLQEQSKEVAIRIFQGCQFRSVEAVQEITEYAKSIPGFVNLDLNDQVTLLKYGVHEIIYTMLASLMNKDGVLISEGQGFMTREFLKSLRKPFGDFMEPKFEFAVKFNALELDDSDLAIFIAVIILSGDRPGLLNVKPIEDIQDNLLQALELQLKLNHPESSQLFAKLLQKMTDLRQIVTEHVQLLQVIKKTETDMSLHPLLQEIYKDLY
T1 sequence (P19793 1-462 partner): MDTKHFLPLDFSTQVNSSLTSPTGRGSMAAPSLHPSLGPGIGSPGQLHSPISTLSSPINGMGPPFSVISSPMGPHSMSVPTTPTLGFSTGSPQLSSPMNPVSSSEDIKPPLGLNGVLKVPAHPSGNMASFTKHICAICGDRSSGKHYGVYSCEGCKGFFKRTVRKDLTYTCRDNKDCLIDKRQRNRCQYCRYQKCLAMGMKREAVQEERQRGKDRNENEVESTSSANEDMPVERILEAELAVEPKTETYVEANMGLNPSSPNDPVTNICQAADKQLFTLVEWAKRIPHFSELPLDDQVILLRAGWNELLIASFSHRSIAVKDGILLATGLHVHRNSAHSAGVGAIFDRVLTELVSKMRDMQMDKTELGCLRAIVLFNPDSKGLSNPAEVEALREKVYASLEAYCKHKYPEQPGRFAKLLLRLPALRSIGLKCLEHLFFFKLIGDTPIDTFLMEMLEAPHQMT
Procedure: The PPAR γ:RXRα:4ERPP/CHO-K1 cells described in WO03/099793 were cultured in a HamF12 medium [manufactured by Life Technologies, Inc., US] containing 10% calf fetal serum [manufactured by Life Technologies, Inc., US], sown in a 96-well white plate [manufactured by Corning Coster Corporation, US] at 2×10^4 cells/well, and incubated overnight in a carbon dioxide gas incubator at 37° C.
Then, the medium was removed from the 96 well white plate, 80 μl of HamF12 medium containing 0.1% fatty acid-free bovine serum albumin (BSA) and a test compound (20 μl) were added, and the cells were incubated for 18-24 hr in a carbon dioxide gas incubator at 37° C. The medium was removed, 40 μl of PicaGene7.5 (manufactured by Wako Pure Chemical Industries, Ltd.) 2-fold diluted with HBSS (HANKS' BALANCED SALT SOLUTION) [manufactured by BIO WHITTAKER, US] was added. After stirring, the luciferase activity was determined using the 1420 ARVO Multilabel Counter [manufactured by PerkinElmer, US].
The induction rate was calculated from the luciferase activity of each test compound based on the luciferase activity of the test compound non-administration group as 1. The test compound concentration and the induction rate were analyzed by PRISM [manufactured by GraphPad Software, Inc., US] to calculate EC50 value (compound concentration showing 50% of the maximum value of induction rate) of the test compound.
In addition, the luciferase activity induction magnification maximum value of each test compound relative to that of the 5-{4-[2-(5-methyl-2-phenyl-1,3-oxazol-4-yl)ethoxy]benzyl}-1,3-thiazolidin-2,4-dione (PPARγ full agonist) administration group as 100% was defined as Vmax and calculated.

KKAy mice = assay: Blood glucose and blood lipid (triglyceride) lowering action in mice; format: in vivo; conditions: 6 days; for hypoglycemic action (%): decrease rate of blood glucose vs non-administration group (100%); for hypolipidemic action (%): decrease rate of blood triglyceride vs non-administration group (100%)
Excerpt: The test compound was mixed with a powder diet (CE-2, CLEA JAPAN, INC.) at a proportion of 0.01% (0.03% for the compound of Example 1) and freely given to KKAy mice (9 to 12-week-old, 5 mice per group) which are obese non-insulin-dependent diabetes (type-2 diabetes) models, for 6 days. During this period, water was freely given to the mice. The blood was drawn from the orbital venous plexus. Glucose and triglyceride in the plasma separated from the blood were quantitated using L Type Wako Glu2 (Wako Pure Chemical Industries, Ltd.) and L Type Wako TG·H (Wako Pure Chemical Industries, Ltd.), respectively, according to an enzyme method.

[1] = 0.03% in powder diet (compound of Example 1)

Structure (SMILES): COc1ccc(C(=O)c2ccc(OCc3nc(-c4ccccc4)oc3C)cc2)c(OCC(=O)O)c1 [Example 1, (5-methoxy-2-{4-[(5-methyl-2-phenyl-1,3-oxazol-4-yl)methoxy]benzoyl}phenoxy)acetic acid]
- EC50 (PPAR γ-RXRα heterodimer): 0.1 µM
- Vmax (%) (PPAR γ-RXRα heterodimer): 57%
- hypoglycemic action (%) (KKAy mice; [1]): 54%
- hypolipidemic action (%) (KKAy mice; [1]): 44%
- melting point: 146 to 147 °C

Structure (SMILES): COc1ccc(C(=O)c2ccc(OCc3nc(-c4ccccc4)oc3C)cc2)c(OC(C)(C)C(=O)O)c1 [Example 14, 2-(5-methoxy-2-{4-[(5-methyl-2-phenyl-1,3-oxazol-4-yl)methoxy]benzoyl}phenoxy)-2-methylpropanoic acid]
- EC50 (PPAR γ-RXRα heterodimer): 0.015 µM
- Vmax (%) (PPAR γ-RXRα heterodimer): 61%
- hypoglycemic action (%) (KKAy mice; 0.01% in powder diet): 38%
- hypolipidemic action (%) (KKAy mice; 0.01% in powder diet): 29%
- melting point: 175 to 177 °C

Structure (SMILES): COc1ccc(C(=O)c2ccc(OCc3nc(-c4ccccc4)oc3C)nc2)c(OC(C)C(=O)O)c1 (stereo not drawn) [Example 21, 2-[5-methoxy-2-({6-[(5-methyl-2-phenyl-1,3-oxazol-4-yl)methoxy]pyridin-3-yl}carbonyl)phenoxy]propanoic acid]
- EC50 (PPAR γ-RXRα heterodimer): 0.0081 µM
- Vmax (%) (PPAR γ-RXRα heterodimer): 60%
- hypoglycemic action (%) (KKAy mice; 0.01% in powder diet): 32%
- hypolipidemic action (%) (KKAy mice; 0.01% in powder diet): 14%
- melting point: 162 to 163 °C

Structure (SMILES): Cc1oc(-c2ccccc2)nc1COc1ccc(C(=O)c2ccccc2OC(C)C(=O)O)cc1 (stereo not drawn) [Example 22, 2-(2-{4-[(5-methyl-2-phenyl-1,3-oxazol-4-yl)methoxy]benzoyl}phenoxy)propanoic acid]
- EC50 (PPAR γ-RXRα heterodimer): 0.033 µM
- Vmax (%) (PPAR γ-RXRα heterodimer): 70%
- hypoglycemic action (%) (KKAy mice; 0.01% in powder diet): 41%
- hypolipidemic action (%) (KKAy mice; 0.01% in powder diet): 48%
- melting point: 186 to 187 °C

Structure (SMILES): COc1cc(C)c(C(=O)c2ccc(OCc3nc(-c4ccccc4)oc3C)cc2)c(O[C@H](C)C(=O)O)c1 [Example 42, (2R)-2-(5-methoxy-3-methyl-2-{4-[(5-methyl-2-phenyl-1,3-oxazol-4-yl)methoxy]benzoyl}phenoxy)propanoic acid]
- EC50 (PPAR γ-RXRα heterodimer): 0.001 µM
- Vmax (%) (PPAR γ-RXRα heterodimer): 73%
- melting point: 122 to 123 °C

Structure (SMILES): COc1ccc(C(=O)c2ccc(OCc3nc(-c4ccccc4)oc3C)cc2)c(O[C@H](C)C(=O)O)c1 [Example 53, (2R)-2-(5-methoxy-2-{4-[(5-methyl-2-phenyl-1,3-oxazol-4-yl)methoxy]benzoyl}phenoxy)propanoic acid]
- EC50 (PPAR γ-RXRα heterodimer): 0.0051 µM
- Vmax (%) (PPAR γ-RXRα heterodimer): 60%
- hypoglycemic action (%) (KKAy mice; 0.01% in powder diet): 46%
- hypolipidemic action (%) (KKAy mice; 0.01% in powder diet): 12%
- melting point: 169 to 170 °C

Structure (SMILES): COc1ccc(C(=O)c2ccc(OCCc3nc(-c4ccccc4)oc3C)nc2)c(O[C@H](C)C(=O)O)c1 [Example 55, (2R)-2-[5-methoxy-2-({6-[2-(5-methyl-2-phenyl-1,3-oxazol-4-yl)ethoxy]pyridin-3-yl}carbonyl)phenoxy]propanoic acid]
- EC50 (PPAR γ-RXRα heterodimer): 0.015 µM
- Vmax (%) (PPAR γ-RXRα heterodimer): 44%
